Measurements: patent US10654834B2 (Venenum Biodesign, LLC, priority 2016, dated 2020)

Legend:
Mouse STC-1 cells = assay: STC-1 GLP-1 assay (GLP-1 secretion); format: cell-based; conditions: Mouse STC-1 cells, GLP-1 secretion, 2 h; read-out: Mouse STC-1 HTRF GLP-1 Activity (EC50)
Procedure: Compounds of the present invention were evaluated for their ability to induce GLP-1 production in mouse intestinal neuroendocrine tumor cells.
Mouse STC-1 cells were cultured and maintained in high glucose DMEM (Sigma #5796) supplemented with 15% horse serum, 5% Fetal Bovine Serum (FBS), 1%° penicillin/streptomycin, and 2 mM L-alanine L-glutamine (GlutaMax). Two days prior to analysis of GLP-1 secretion cells were harvested using Accutase (Sigma), spun down then resuspended in high glucose DMEM media containing 2 mM L-alanine L-glutamine (GlutaMax), 10% charcoal-dextran stripped FBS, and 50 μg/mL Gentamicin, at a density of 100,000° cells/mL. 100 μL of cell suspension was added to each well of a 96-well Poly-D-Lysine coated culture plate (Sigma; cat #2382493) and was incubated at 37° C. with 5% CO2.
Compounds were initially diluted in 100% DMSO (12-point serial dilution by half logs) in a 96-well plate and then were further diluted 1:500 in Hanks' Balanced Salt Solution (HBSS) containing protease inhibitor cocktail, DPP-IV inhibitor, and 0.1% fatty acid free bovine serum albumin. On the day of the experiment cells were washed once with HBSS. After wash, 100 μL of test compound was added to each well. The plate was incubated at 37° C. with 5% CO2 for 2° h. Supernatants were collected and GLP-1 secretion was measured using the Cisbio™ Active GLP-1 HTRF Assay Kit (CisBio). Briefly, Anti-GLP-1-d2 conjugate and Anti-GLP-1 Terbium Cryptate conjugate stock solutions were prepared as per kit instructions. The two solutions were pre-mixed and 10 μL were transferred to a 384-well low volume plate (Greiner; cat #784075). 10 μL of collected supernatants were added to wells already containing the conjugate solution. The plate was covered and incubated at room temperature overnight. The plate was read on an Envision™ plate reader (PerkinElmer).
In Table 53, EC50 values were obtained from the STC-1 GLP-1 production assay for compounds of the present invention are summarized.

[1] = Pharmacokinetic profile in mice after oral gavage; format: in vivo, mouse; conditions: mouse; fasted male Hilltop mice, 10 mg/kg oral gavage, plasma; read-out: Cmax
Procedure, shortened: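 Fasted 8-week male Hilltop mice given 10 mg/kg orally in 20% PEG400/80% 0.5% CMC + 0.25% Tween-80. EDTA plasma sampled 0-4 h, measured by LC-MS/MS (MRM, positive ion); Cmax and AUC derived non-compartmentally, values being means of three mice.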

| Structure (SMILES) | EC50 (Mouse STC-1 cells) [nM] | Cmax [1] [ng/mL] |
| --- | --- | --- |
| N#Cc1ccc(CCNC(=O)[C@@H]2CCN2c2cc(N3CCC(CCNC(=N)N)CC3)nc(C(F)(F)F)n2)cc1 [Compound 285, (S)-N-(4-cyanophenethyl)-1-(6-(4-(2-guanidinoethyl)piperidin-1-yl)-2-(trifluoromethyl)pyrimidin-4-yl)azetidine-2-carboxamide] | < 100 | 0.9 |
| N#Cc1ccc(CCNC(=O)[C@@H]2CCN2c2cc(N3CCC(CCNC(=O)NCCNC(=N)N)CC3)nc(C(F)(F)F)n2)cc1 [Compound 286, (S)-N-(4-cyanophenethyl)-1-(6-(4-(2-(3-(2-guanidinoethyl)-ureido)ethyl)piperidin-1-yl)-2-(trifluoromethyl)pyrimidin-4-yl)azetidine-2-carboxamide] | 100 to 999 | 5.2 |
| N#Cc1ccc(CCNC(=O)[C@@H]2CCN2c2cc(N3CCC(CCNS(=O)(=O)CCNC(=O)[C@@H](N)CS(=O)(=O)O)CC3)nc(C(F)(F)F)n2)cc1 [Compound 363, (R)-2-amino-3-((2-(N-(2-(1-(6-((S)-2-((4-cyanophenethyl)carbamoyl)azetidin-1-yl)-2-(trifluoromethyl)pyrimidin-4-yl)piperidin-4-yl)ethyl)sulfamoyl)ethyl)amino)-3-oxopropane-1-sulfonic acid] | < 100 | 0.5 |
| N#Cc1ccc(CCNC(=O)[C@@H]2CCCN2c2cc(N3CCC(CCCNC(=O)NCCS(N)(=O)=O)CC3)nc(C(F)(F)F)n2)cc1 [Compound 120, (S)-N-(4-cyanophenethyl)-1-(6-(4-(3-(3-(2-sulfamoylethyl)ureido)propyl)piperidin-1-yl)-2-(trifluoromethyl)pyrimidin-4-yl)pyrrolidine-2-carboxamide] | < 100 | 2.6 |
| O=C(O)CC[C@@H](NC(=O)CCCC1CCN(c2cc(N3CC[C@H]3C(=O)NCCc3ccc(C(F)(F)F)cc3)nc(C(F)(F)F)n2)CC1)C(=O)O [Compound 294, (R)-2-(4-(1-(2-(trifluoromethyl)-6-((S)-2-((4-(trifluoromethyl)-phenethyl)carbamoyl)azetidin-1-yl)pyrimidin-4-yl)piperidin-4-yl)butanamido)pentanedioic acid] | < 100 | 1.7 |
| N#Cc1ccc(CCNC(=O)[C@@H]2CCCN2c2cc(N3CCC(CCNS(=O)(=O)CCNC(=N)N)CC3)nc(C(F)(F)F)n2)cc1 [Compound 130, (S)-N-(4-cyanophenethyl)-1-(6-(4-(2-(2-guanidinoethylsulfonamido)ethyl)piperidin-1-yl)-2-(trifluoromethyl)pyrimidin-4-yl)pyrrolidine-2-carboxamide] | < 100 | 2.8 |
| O=C(O)CCC1CCN(c2cc(N3CC[C@H]3C(=O)NCCc3ccc(C(F)(F)F)cc3)nc(C(F)(F)F)n2)CC1 [Compound 232, (S)-3-(1-(2-(trifluoromethyl)-6-(2-((4-(trifluoromethyl)phenethyl)carbamoyl)azetidin-1-yl)pyrimidin-4-yl)piperidin-4-yl)propanoic acid] | < 100 | 64 |
| O=C(O)CCCC1CCN(c2cc(N3CCC[C@H]3C(=O)NCCc3ccc(C(F)(F)F)cc3)nc(C(F)(F)F)n2)CC1 [Compound 9] | < 100 | 48 |
| N#Cc1ccc(CCNC(=O)[C@@H]2CCCN2c2cc(N3CCC(CCNC(=O)NCCS(=O)(=O)NCC(=O)O)CC3)nc(C(F)(F)F)n2)cc1 [Compound 107] | 100 to 999 | 0.4 |
| N#Cc1ccc(CCNC(=O)[C@@H]2CCCN2c2cc(N3CCC(CCCC(=O)NCCCC[C@H](NC(=N)N)C(=O)O)CC3)nc(C(F)(F)F)n2)cc1 [Compound 129, (S)-6-(4-(1-(6-((S)-2-((4-cyanophenethyl)carbamoyl)pyrrolidin-1-yl)-2-(trifluoromethyl)pyrimidin-4-yl)piperidin-4-yl)butanamido)-2-guanidinohexanoic acid] | 100 to 999 | 0.6 |

Further lines, results first:

| EC50 (Mouse STC-1 cells) [nM] | Cmax [1] [ng/mL] | Structure (SMILES) |
| --- | --- | --- |
| 100 to 999 | 8.9 | N#Cc1ccc(CCNC(=O)[C@@H]2CCCN2c2cc(N3CCC(CCCC(=O)NCCC(=O)O)CC3)nc(C(F)(F)F)n2)cc1 [Compound 104, (S)-3-(4-(1-(6-(2-((4-cyanophenethyl)carbamoyl)pyrrolidin-1-yl)-2-(trifluoromethyl)pyrimidin-4-yl)-piperidin-4-yl)butanamido)-propanoic acid] |
| 100 to 999 | 1.5 | N#Cc1ccc(CCNC(=O)[C@@H]2CCCN2c2cc(N3CCC(CCNc4c(NCCS(=O)(=O)O)c(=O)c4=O)CC3)nc(C(F)(F)F)n2)cc1 [Compound 367, (S)-2-((2-((2-(1-(6-(2-((4-cyanophenethyl)carbamoyl)pyrrolidin-1-yl)-2-(trifluoromethyl)pyrimidin-4-yl)piperidin-4-yl)ethyl)amino)-3,4-dioxocyclobut-1-en-1-yl)amino)ethanesulfonic acid] |
| 100 to 999 | 1.3 | CS(=O)(=O)NCCOCCNC(=O)NCCC1CCN(c2cc(N3CC[C@H]3C(=O)NCCc3ccc(C#N)cc3)nc(C(F)(F)F)n2)CC1 [Compound 292, (S)-N-(4-cyanophenethyl)-1-(6-(4-(2-(3-(2-(2-(methylsulfonylamino)-ethoxy)ethyl)ureido)ethyl)piperidin-1-yl)-2-(trifluoromethyl)pyrimidin-4-yl)azetidine-2-carboxamide] |
| 100 to 999 | 28 | N#Cc1ccc(CCNC(=O)[C@@H]2CCN2c2cc(N3CCC(CCCC(=O)O)CC3)nc(C(F)(F)F)n2)cc1 [Compound 231, (S)-4-(1-(6-(2-((4-cyanophenethyl)carbamoyl)azetidin-1-yl)-2-(trifluoromethyl)pyrimidin-4-yl)piperidin-4-yl)butanoic acid] |
| 100 to 999 | 8.4 | N#Cc1ccc(CCNC(=O)[C@@H]2CCN2c2cc(N3CCC(CCNC(=O)NCCOCCNC(=O)CS(=O)(=O)O)CC3)nc(C(F)(F)F)n2)cc1 [Compound 356, (S)-1-(1-(6-(2-((4-cyanophenethyl)carbamoyl)azetidin-1-yl)-2-(trifluoromethyl)pyrimidin-4-yl)piperidin-4-yl)-4,12-dioxo-8-oxa-3,5,11-triazatridecane-13-sulfonic acid] |
| < 100 | 301 | N#C/N=C(\NCCC(=O)O)NCCC1CCN(c2cc(N3CC[C@H]3C(=O)NCCc3ccc(C#N)cc3)nc(C(F)(F)F)n2)CC1 [Compound 351, (S,Z)-3-(2-cyano-3-(2-(1-(6-(2-((4-cyanophenethyl)carbamoyl)azetidin-1-yl)-2-(trifluoromethyl)pyrimidin-4-yl)piperidin-4-yl)ethyl)guanidino)propanoic acid] |
| 100 to 999 | 3.2 | N#Cc1ccc(CCNC(=O)[C@@H]2CCN2c2cc(N3CCC(CCCC(=O)NC[C@@H](O)[C@H](O)[C@@H](O)[C@@H](O)CO)CC3)nc(C(F)(F)F)n2)cc1 [Compound 260, (S)—N-(4-cyanophenethyl)-1-(6-(4-(4-oxo-4-(((2R,3S,4S,5S)-2,3,4,5,6-pentahydroxyhexyl)amino)butyl)piperidin-1-yl)-2-(trifluoromethyl)pyrimidin-4-yl)azetidine-2-carboxamide] |
| < 100 | 13 | COc1cc(C(F)(F)F)ccc1CCNC(=O)[C@@H]1CCCN1c1cc(N2CCC(CCCC(=O)NCCS(=O)(=O)O)CC2)nc(C(F)(F)F)n1 [Compound 57, (S)-2-(4-(1-(6-(2-((2-methoxy-4-(trifluoromethyl)phenethyl)carbamoyl)-pyrrolidin-1-yl)-2-(trifluoromethyl)-pyrimidin-4-yl)piperidin-4-yl)butanamido)ethanesulfonic acid] |
